In US10695296B2, “Formulations, methods, kit, and dosage forms for improved stability of an active pharmaceutical ingredient” (Asana BioSciences, LLC, priority 2017, dated 2020):
Several values for one entry are separate records, joined by “and”; a condition that tells them apart may be missing. Equal values may be shown once. Read-outs that look alike come from different tables or passages of the source.

Assay: PK characteristics in humans (plasma, LC/MS/MS)
Type: in vivo, human
Conditions: for accumulation: cancer patients; for dose dependence of Cmax and AUC: 10-400 mg QD and 400 mg BID; for half-life: read-out: T1/2 (converted)
Method: A pharmaceutical formulation of the disclosure comprising the active ingredient N-(3-(2-(6-amino-4-(trifluoromethyl)pyridin-3-yl)-4-morpholinopyrido[3,2-d]pyrimidin-6-yl)-2-fluorophenyl)-3-fluoropropane-1-sulfonamide was evaluated for safety/tolerability and preliminary efficacy in eligible human subjects with advanced solid tumors, and the pharmacokinetic (PK) profile of the active ingredient was investigated for each subject. Eligibility criteria for inclusion in this study included:
Fifteen eligible patients were enrolled in total daily dose levels ranging from 10-800 mg per day of the active ingredient, provided as 10-mg, 20-mg, 80-mg and 120-mg tablets for oral administration. Dose escalation is ongoing. All study medication supplies were provided by Asana BioSciences, LLC (Bridgewater, N.J.). The tablets were administered orally every 12-24 hours on an empty stomach (either 1 hour before or 2 hours after a meal or snack) with approximately 240 mL of water. On study days in which there was a single plasma PK sample taken, the subject was instructed to fast for at least 2 hours prior to collection of the PK sample. On study days with multiple plasma PK samples taken, the subject was instructed to fast overnight (at least 8 hours prior to study drug administration) and remain fasting for 2 hours after study drug administration. The date and time of the dose(s) taken prior to or on PK sampling days were collected by the study site or catalogued via a diary card provided to the subject.
An ultra performance liquid chromatographic method was used for the determination of the active ingredient in human EDTA K2 plasma. This method was validated over an analytical range of 0.5 to 500 ng/mL. Calibration standards (CS) and quality control (QC) samples at three or four levels of concentrations were prepared fresh from the appropriate working solutions which were stored at −20° C. The human EDTA K2 plasma used for the preparation of CS and QC samples was obtained from Bioreclamation (Westbury, Pa., USA) and analyzed to determine possible interference with the analyte or the internal standard, and no significant interference was observed. The following parameters were used to determine analyte levels in the plasma samples: […]

[1] = Day 1, 40 mg, individual subjects
[2] = Day 1, 80 mg, individual subjects
[3] = Day 1, 240 mg, individual subjects
[4] = Day 1, 400 QD mg, individual subjects
[5] = Day 1, 400 bid mg, individual subjects
[6] = Day 15, 40 mg, individual subjects
[7] = Day 15, 80 mg, individual subjects
[8] = Day 15, 240 mg, individual subjects
[9] = Day 15, 400 QD mg, individual subjects
[10] = human subjects, listed as active ingredient

Q: What does the source list for `Nc1cc(C(F)(F)F)c(-c2nc(N3CCOCC3)c3nc(-c4cccc(NS(=O)(=O)CCCF)c4F)ccc3n2)cn1` [CMPD A, N-(3-(2-(6-amino-4-(trifluoromethyl)pyridin-3-yl)-4-morpholinopyrido[3,2-d]pyrimidin-6-yl)-2-fluorophenyl)-3-fluoropropane-1-sulfonamide]?
A: accumulation (BID administration): ~3 fold; AUC0-24 [1]: 1400 ng·h/mL and 5510 ng·h/mL; Cmax [1]: 96.2 ng/mL and 289 ng/mL; T1/2 [1]: 17.6 h; AUC0-24 [2]: 8090 ng·h/mL and 4010 ng·h/mL; Cmax [2]: 300 ng/mL; Tmax [2]: 24 h; AUC0-24 [3]: 9560 ng·h/mL and 4300 ng·h/mL; Cmax [3]: 744 ng/mL and 295 ng/mL; T1/2 [3]: 23.9 h and 11.0 h; AUC0-24 [4]: 3200 ng·h/mL and 26700 ng·h/mL; Cmax [4]: 264 ng/mL and 1870 ng/mL; T1/2 [4]: 15.6 h; AUC0-24 [5]: 20400 ng·h/mL; Cmax [5]: 1430 ng/mL; T1/2 [5]: 15.0 h; RAUCtau (Day 15, 10 mg, n=1): 1.5; RCmax (Day 15, 10 mg, n=1): 1.3; RAUCtau (Day 15, 20 mg, n=1): 2.1; RCmax (Day 15, 20 mg, n=1): 1.5; AUC0-24 [6]: 2580 ng·h/mL and 9190 ng·h/mL; Cmax [6]: 173 ng/mL and 523 ng/mL; RAUCtau [6]: 1.9 and 2.3; RCmax [6]: 1.8, 1.8; T1/2 [6]: 22.5 h and 47.8 h; AUC0-24 [7]: 21300 ng·h/mL; Cmax [7]: 1179 ng/mL; RAUCtau [7]: 2.4 and 5.3; RCmax [7]: 2.0 and 4.0; Tmax [7]: 24 h; RAUCtau (Day 15, 120 mg, n=3, range): 1.2-1.9; RCmax (Day 15, 120 mg, n=3, range): 0.8-2.4; AUC0-24 [8]: 26000 ng·h/mL and 3740 ng·h/mL; Cmax [8]: 1610 ng/mL and 299 ng/mL; RAUCtau [8]: 2.7 and 0.9; RCmax [8]: 2.2 and 1.0; T1/2 [8]: 29.0 h and 10.3 h; Tmax [8]: (2, 2) hr; AUC0-24 [9]: 41300 ng·h/mL; Cmax [9]: 2930 ng/mL; RAUCtau [9]: 8.0 and 1.55; RCmax [9]: 10.5 and 1.57; T1/2 [9]: 11.7 h; Tmax [9]: 1 h; RAUCtau (Day 15, 400 bid mg, n=1): 3.76; RCmax (Day 15, 400 bid mg, n=1): 2.53; accumulation (QD administration): ~2 fold; variability of pharmacokinetic parameters (human subjects): Moderate to high inter-and intra-subject variability; dose dependence of Cmax and AUC (human subjects): Dose-dependent Cmax and AUC; dose dependence of Cmax and AUC [10]: generally dose-dependent Cmax and AUC; accumulation in AUC at steady state (human subjects, oral tablets): approximately 2 fold; t1/2 (rate of elimination) (human subjects, oral tablets): Moderate rate of elimination (t1/2 10-25 hours); variability of pharmacokinetic parameters [10]: moderate inter-subject variability; AUC(0-t) (human, plasma, oral, 10 mg, Day 1, 10 mg, n=1, read-out: AUC0-24): 622 ng·h/mL; Cmax (human, plasma, oral, 10 mg, Day 1, 10 mg, n=1, read-out: Cmax): 58 ng/mL; half-life (human, plasma, oral, 10 mg, Day 1, 10 mg, n=1): 16.1 h; Tmax (human, plasma, oral, 10 mg, Day 1, 10 mg, n=1, read-out: Tmax): 4 h; AUC(0-t) (human, plasma, oral, 10 mg, Day 15, 10 mg, n=1, read-out: AUC0-24): 912 ng·h/mL; Cmax (human, plasma, oral, 10 mg, Day 15, 10 mg, n=1, read-out: Cmax): 74 ng/mL; Tmax (human, plasma, oral, 10 mg, Day 15, 10 mg, n=1, read-out: Tmax): 4 h; AUC(0-t) (human, plasma, oral, 10 mg, steady state, 10 QD mg, n=1, cancer patients, read-out: AUC0-24h): 912 ng·h/mL; Cmax (human, plasma, oral, 10 mg, steady state, 10 QD mg, n=1, cancer patients, read-out: Cmax): 74 ng/mL; Tmax (human, plasma, oral, 10 mg, steady state, 10 QD mg, n=1, cancer patients, read-out: Tmax): 4 h; AUC(0-t) (human, plasma, oral, 20 mg, Day 1, 20 mg, n=1, read-out: AUC0-24): 1480 ng·h/mL; Cmax (human, plasma, oral, 20 mg, Day 1, 20 mg, n=1, read-out: Cmax): 101 ng/mL; half-life (human, plasma, oral, 20 mg, Day 1, 20 mg, n=1): 13.7 h; Tmax (human, plasma, oral, 20 mg, Day 1, 20 mg, n=1, read-out: Tmax): 8 h; AUC(0-t) (human, plasma, oral, 20 mg, Day 15, 20 mg, n=1, read-out: AUC0-24): 3160 ng·h/mL; Cmax (human, plasma, oral, 20 mg, Day 15, 20 mg, n=1, read-out: Cmax): 149 ng/mL; half-life (human, plasma, oral, 20 mg, Day 15, 20 mg, n=1): 127 h; Tmax (human, plasma, oral, 20 mg, Day 15, 20 mg, n=1, read-out: Tmax): 8 h; AUC(0-t) (human, plasma, oral, 20 mg, steady state, 20 QD mg, n=1, cancer patients, read-out: AUC0-24h): 3160 ng·h/mL; Cmax (human, plasma, oral, 20 mg, steady state, 20 QD mg, n=1, cancer patients, read-out: Cmax): 149 ng/mL; Tmax (human, plasma, oral, 20 mg, steady state, 20 QD mg, n=1, cancer patients, read-out: Tmax): 8 h; half-life (human, plasma, oral, 40 mg, Day 1, 40 mg, individual subjects): 18.2 h; AUC(0-t) (human, plasma, oral, 40 mg, Day 1, 40 mg, n=2, mean, read-out: AUC0-24): 2670 ng·h/mL; Cmax (human, plasma, oral, 40 mg, Day 1, 40 mg, n=2, mean, read-out: Cmax): 192 ng/mL; half-life (human, plasma, oral, 40 mg, Day 1, 40 mg, n=2, mean): 17.9 h; Tmax (human, plasma, oral, 40 mg, Day 1, 40 mg, n=2, mean, read-out: Tmax): 5 h; Tmax (human, plasma, oral, 40 mg, Day 15, 40 mg, individual subjects, read-out: Tmax): 4 h; AUC(0-t) (human, plasma, oral, 40 mg, Day 15, 40 mg, n=2, mean, read-out: AUC0-24): 5890 ng·h/mL
